Experimental data as given in ChEMBL document CHEMBL1155665, “Euplectin and coneuplectin, new naphthopyrones from the lichen Flavoparmelia euplecta” (J Nat Prod, 2000).
≈ marks a conversion by molar mass, not a printed value.

Test system: P815
Test: Antiproliferative activity against mouse P815 cells assessed as incorporation of [3H]thymidine after 18 hrs by liquid scintillation counting
Format: functional, cell-based

## Cc1cc(=O)c2c(O)cc3cc4c(c(O)c3c2o1)C(=O)C=C4 [EUPLECTIN]
  IC50: 1.67 µg/mL (≈ 5.68 µM)
